Values quoted from earlier work as cited in patent US20110293690A1, “Biodegradable Polymer Encapsulated Microsphere Particulate Film and Method of Making Thereof” (Tyco Healthcare Group LP, priority 2010, published 2011).
Structures can show the parent of a compound that is named as a salt. Where two headings read alike, the source gives them in different places.

Assays:
[1] = in water, stated in words

| SMILES | pKa | aqueous solubility ([1]; listed as free base form of bupivacaine) | aqueous solubility ([1]; hydrochloride) |
| --- | --- | --- | --- |
| CCCCN1CCCCC1C(=O)Nc1c(C)cccc1C (stereo not drawn) [Bupivacaine, bupivacaine] | about 8.1 | lower aqueous solubility |  |
| CCCCN1CCCCC1C(=O)Nc1c(C)cccc1C (stereo not drawn) [salt form of bupivacaine, bupivacaine hydrochloride] |  |  | soluble in water |
